A melting point compilation (Tetko et al.; mined from patent text by program, amines drawn as free bases though some values may be those of a salt)

First: CNC(=O)CCCCN1CCC(C(O)(c2ccc(F)cc2)c2ccc(F)cc2)CC1
Second: CS(=O)c1ccccc1CN1CCC(=O)C(C(c2ccc(F)cc2)c2ccc(F)cc2)C1 (stereo not drawn)
The melting point of the first is lower: 130 to 131 °C for the first, 187 to 189 °C for the second.

First: O=C(CC1=C(n2nc(-c3c(-c4ccccc4)nn4ccccc34)ccc2=O)CCCC1)N1CCOCC1
Second: COc1ccccc1N1CCN(CCn2nc(-c3c(-c4ccccc4)nn4ccccc34)ccc2=O)CC1
The melting point of the first is higher: 202 to 204 °C for the first, 120 to 125 °C for the second.

First: CS(=O)(=O)N1CCC(Nc2nc(Nc3ccc(F)c(C(=O)N4CCOCC4)c3)nc(OCC(F)(F)F)n2)CC1
Second: Cc1occc1C(=S)Nc1ccc(Cl)c(C=NN2CCOCC2)c1
The melting point of the first is higher: 217 to 219 °C for the first, 142 to 143 °C for the second.

First: Fc1ccc(C2NCCc3c2[nH]c2ccccc32)cc1F (stereo not drawn)
Second: Cc1ccc2[nH]c(-c3ccc(S(C)(=O)=O)cc3)c(-c3ccccc3)c2c1
The melting point of the first is lower: 151 °C for the first, 245 to 247 °C for the second.

First: CCOC(=O)c1cn(CC)c2nc(OC)ncc2c1=O
Second: CCOC(=O)c1cc(Nc2cccnc2)c(=O)n(CC)n1
The melting point of the first is lower: 149 °C for the first, 166 to 167 °C for the second.

First: Cn1c(Cl)c(C=C(C#N)S(C)(=O)=O)c2ccccc21
Second: COC(=O)Cc1c(NC(C)=O)n(C)c2ccccc12
The melting point of the first is higher: 180 °C for the first, 126 to 128 °C for the second.

`COc1ccc2c(c1C)OC(C)(C)CC2=O` and `CN=Cc1ccc2c(Br)c(OC)ccc2c1` fall in the same range of melting point: 105 to 107 °C for the first, 105 to 107 °C for the second.

Compared with `Nc1nc(-c2ccccc2)nc2c1=NCC(=O)N=2`, `O=C(O)c1nc(-c2ccc(-c3ccccc3)cc2)nc2ccccc12` is lower in melting point: 330 to 332 °C for the first, 175 to 176 °C for the second.

Compared with `Cc1nc(N2CCN(Cc3ccc(C#N)cc3)C2=O)sc1C(=O)NCc1ccccc1`, `N#Cc1ccc(Cn2cncc2CN2CCC3(CC2)C(=O)Nc2ccccc23)cc1` is higher in melting point: 176 to 178 °C for the first, 245 to 247 °C for the second.

First: CCC1N=C(c2ccccc2Cl)c2cc(CC(=O)OC)sc2-n2c(C)nnc21 (stereo not drawn)
Second: COC(=NS(=O)(=O)c1ccccc1Cl)Nc1nc(C)nc(OC)n1
The melting point of the first is lower: 134 to 137 °C for the first, 156 to 157 °C for the second.

First: O=C1SC[C@@H](CO)N1Cc1ccccc1
Second: CN(C)C(=O)c1nc2ccccc2n(Cc2ccccc2)c1=O
The melting point of the first is lower: 87 to 90 °C for the first, 154 to 155 °C for the second.

First: CCCCCCCCCCCCS(=O)(=O)c1ccc2c(c1)C(=O)c1c(c(O)c3ccccc3c1O)C2=O
Second: O=C1c2ccccc2C(=O)c2c1ccc(C(=O)O)c2[N+](=O)[O-]
The melting point of the first is lower: 185 to 186 °C for the first, 284 to 286 °C for the second.

First: CC(C)C1Cc2cnc3c(c2C1(O)CC#N)CCO3 (stereo not drawn)
Second: CCNC(=O)N(C)Cc1cccc2c1CN(C1CCC(=O)NC1=O)C2=O (stereo not drawn)
The melting point of the first is lower: 169 to 170 °C for the first, 183 to 185 °C for the second.

First: CCOC(=O)C(=O)Cc1c[nH]c2ccc(OCc3ccccc3)cc12
Second: CNC(=O)N(Cc1ccc(OCCc2nc(-c3ccccc3)oc2C)cc1)OC(=O)OC
The melting point of the first is higher: 169 to 170 °C for the first, 134 to 135 °C for the second.

Going from `COC(C)(OC)OC(=O)N[C@@H](Cc1cn(S(=O)(=O)c2ccc(C)cc2)cn1)C(=O)O` to `Cc1ccc(S(=O)(=O)n2ccc3c(Cl)c(F)cnc32)cc1`, the melting point rises from 120 °C to 125 °C.

Compared with `CN(C)Cc1ccc2c(c1)nnn2Cc1c(Cl)c(Cl)cc2[nH]c(=O)c(=O)[nH]c12`, `CCCOc1ccc(S(=O)(=O)N2CC[C@@H](N(C)C)C2)cc1-c1nc2cc3ncn(Cc4ccccc4)c3cc2c(=O)[nH]1` is lower in melting point: 282 °C for the first, 190 °C for the second.

First: C[Si](C)(C)C(CN)CC(=O)O (stereo not drawn)
Second: COc1ccc(C(=O)CCC(=O)N[C@@H](C)C(=O)O)cc1
The melting point of the first is higher: 199 to 201 °C for the first, 100 to 102 °C for the second.

First: CC(Cl)CC(C)Oc1ccc(-c2ccc(C(=O)Oc3ccc(C#N)cc3)cc2)cc1 (stereo not drawn)
Second: COCOc1c(C)cc(-c2ccc(C(=O)NCCOc3ccc(CC(Oc4ccccc4)C(=O)O)cc3)cc2)cc1C (stereo not drawn)
The melting point of the first is lower: 104 °C for the first, 142 to 143 °C for the second.

First: CC(C)(C)OC(=O)Nc1ccc(C#Cc2ccccc2Cl)cc1[N+](=O)[O-]
Second: CC#Cc1ncccc1C(=O)c1ccccc1Cl
The melting point of the first is higher: 152 to 155 °C for the first, 45 to 49 °C for the second.

First: O=C1c2ccccc2C(=O)N1C1CCN(Cc2ccccc2)CC1
Second: O=C1CC(=O)N(c2ccccc2)c2cc(Cl)ccc2N1Cc1ccccc1
The melting point of the first is lower: 154 to 157 °C for the first, 173 to 175 °C for the second.

Compared with `O=[N+]([O-])c1ccc(-c2ccsc2-c2ccc(F)cc2)cc1`, `Cn1ncc(/C=C/C(=O)Nc2ccc(OCc3cscn3)cc2)c1-c1ccc(F)cc1` is higher in melting point: 108 to 110 °C for the first, 171 to 172 °C for the second.

Compared with `C=CC(=O)N1CCc2cc(OC)c(OC)cc2C12CCC(C(=O)OCC)(C(=O)OCC)CC2C1c2cc(OC)c(OC)cc2CCN1CC` (stereo not drawn), `CCCCCC(CC(=O)Nc1cc(C(=O)O)ccc1C(C)(C)C)c1ccc(CCCC)cc1OC` (stereo not drawn) is lower in melting point: 150 to 151 °C for the first, 136 to 138 °C for the second.

Going from `CNc1cc2c(cc1[N+](=O)[O-])OCO2` to `COc1cc(C(=O)c2ncc3ccc(N)cn23)ccc1[N+](=O)[O-]`, the melting point rises from 170 °C to 252 °C.

First: COc1ccc2c(c1)C13CCN(C)C(C2)C1(O)C=CC(=O)C3 (stereo not drawn)
Second: COc1ccc(C)c(O)c1
The melting point of the first is higher: 213 to 215 °C for the first, 34 to 35 °C for the second.

First: Oc1ccc2c(c1)COc1c-2cc2ccc(O)cc2c1-c1ccncc1
Second: COc1cc(Nc2nc3cccc(-c4cccc(CNC(C)=O)c4)c3o2)cc(OC)c1OC
The melting point of the first is higher: over 250 °C for the first, 203 to 204 °C for the second.

First: Cc1ccc(-n2c(-c3ccc(CC(=O)O)cc3)ccc2-c2ccc(CC(=O)O)cc2)cc1
Second: Cc1c(CCC(=O)O)n(Cc2ccc(-n3ccnc3)cc2)c2ccc(F)cc12
The melting point of the first is lower: 193 to 195 °C for the first, 222 °C for the second.

Compared with `O=C(O)CCc1cnn(-c2ccccc2)c1-c1ccccc1`, `O=C(O)CCCCCCCCN1NNN=C1C(c1ccccc1)c1ccccc1` is lower in melting point: 159 to 160 °C for the first, 68 to 70 °C for the second.

First: CC(C)c1cn2ccccc2c1S(=O)(=O)c1ccc(OCCCN2CCC(c3ccccc3)CC2)cc1
Second: OC1c2ccc(OCc3ccccc3)cc2OCC1N1CCC(O)(c2ccc(F)cc2)CC1 (stereo not drawn)
The melting point of the first is lower: 79 to 80 °C for the first, 194 to 195 °C for the second.

First: Oc1cc(Br)c(Br)cc1O
Second: Oc1nc(Cl)c(Cl)cc1Cl
The melting point of the first is lower: 110 to 111 °C for the first, 168 to 170 °C for the second.

Compared with `C#Cc1ccc2c(c1)C1(c3ccccc3-c3ccccc31)c1ccccc1-2`, `Nc1ccccc1Nc1ccc(C(c2ccc(Nc3ccccc3N)cc2)(C(F)(F)F)C(F)(F)F)cc1` is lower in melting point: 169 to 170 °C for the first, 150 to 152 °C for the second.

First: CSc1nc(SC)nc(-n2c(C)nc3ccccc32)n1
Second: C[Si](C)(C)c1ccc(-c2nccc3ccccc23)cc1
The melting point of the first is higher: 176 to 179 °C for the first, 93.5 °C for the second.

Compared with `Cc1cccc(NC(=O)CN2C(=O)c3ccccc3C2=O)c1`, `O=C(O)C(CCc1ccccc1[N+](=O)[O-])N1C(=O)c2ccccc2C1=O` (stereo not drawn) is lower in melting point: 207 °C for the first, 177 to 179 °C for the second.

First: O=C(N[C@H](Cc1ccc(C(F)(F)F)c(F)c1)[C@@H](O)c1ccc(F)cc1)c1ccc(F)c2ccccc12 (racemic)
Second: Cc1ccc(COc2cccnc2NC(=S)Nc2ccc(Cl)cc2)cc1
The melting point of the first is higher: 212 to 213 °C for the first, 145 to 147 °C for the second.

First: COCCSCC(=O)[C@H](Cc1ccccc1)NC(=O)[C@H](CC(C)C)NC(=O)OCc1ccccc1
Second: CC(CCN1C(=O)c2ccccc2C1=O)Cc1ccc(C(=O)CCC(=O)O)cc1 (stereo not drawn)
The melting point of the first is lower: 68 to 69 °C for the first, 142 to 143 °C for the second.

First: Cc1nc(NC(=O)c2cnccn2)c(Br)c(C)c1Br
Second: CCCn1cc2c(C3(F)C(=O)Nc4ccc(Br)cc43)ncnc2n1 (stereo not drawn)
The melting point of the first is lower: 166 °C for the first, 184 to 186 °C for the second.

First: CCCCn1c(=S)sc2c(=N)n(NC(=O)c3ccco3)cnc21
Second: CCOC(=O)c1sc(N)nc1-c1ccc(F)cc1
The melting point of the first is higher: 210 °C for the first, 205 to 208 °C for the second.

First: Cc1cccc(-c2cc(C(F)(F)F)n3ncc(C#N)c3n2)c1
Second: Cc1oc(-c2ccc(C(F)(F)F)cc2)cc1COc1cccc(C=O)c1
The melting point of the first is higher: 202 °C for the first, 85 to 86 °C for the second.

First: O=[N+]([O-])c1ccccc1NC1CCCCC1
Second: CN1CC[C@H](NC(=O)c2ccccc2)[C@H](c2ccccc2)C1 (relative stereo)
The melting point of the first is lower: 105 to 107 °C for the first, 154 to 155 °C for the second.

First: CC(C)OC1CCCC(C2NC(=O)C2C(C)O[Si](C)(C)C(C)(C)C)C1O (stereo not drawn)
Second: CN1C(=O)CCC2(C)C3CCC4(C)C(OCC(=O)O)CCC4C3CCC12 (stereo not drawn)
The melting point of the first is lower: 121 to 123 °C for the first, 180 to 184 °C for the second.

First: COc1ccc(CC(=O)c2ccc(OC)c(F)c2)cc1F
Second: COC(=O)CC(C#Cc1cccc(-c2noc(C)n2)c1)c1ccc(OC)c(OC2CCCC2)c1 (racemic)
The melting point of the first is higher: 151 to 152 °C for the first, 66 to 68 °C for the second.

First: COCCc1ccsc1S(N)(=O)=O
Second: [N-]=[N+]=NCCCc1cn(S(=O)(=O)c2c(Cl)nc3sccn23)c2ccc(F)cc12
The melting point of the first is lower: 64 to 73 °C for the first, 84 to 86 °C for the second.

Compared with `COc1ccc(-c2sc3c(c2CBr)c(=O)c(C(C)=O)cn3Cc2ccccc2F)cc1`, `COc1cccc(NC(=O)NCc2cccc3c2C(=O)N(C2CCC(=O)NC2=O)C3=O)c1` (stereo not drawn) is lower in melting point: 226 to 228 °C for the first, 160 to 162 °C for the second.

Compared with `COC(=O)Cc1cc([N+](=O)[O-])c(OC)c2c1N(C(C)=O)CC2`, `Cc1cc2c(-c3ccccc3)c(CC(=O)O)n(C)c(=O)c2cc1C` is higher in melting point: 181 to 182 °C for the first, 217 to 220 °C for the second.

First: CC(C)(O)CCC[C@@](C)(CC#CC(O)(C(F)(F)F)C(F)(F)F)[C@H]1CC[C@H]2[C@@H](O)CCC[C@]12C
Second: CCCC1(CC(=O)O)OC=CC2=C1NC1=C3CCCCC3CCC21 (stereo not drawn)
The melting point of the first is higher: 146 to 147 °C for the first, 78 to 80 °C for the second.

Compared with `COC(=O)C(=O)Nc1ccc2c3c(n(CCCNC(=O)OC(C)(C)C)c(=O)c2c1)-c1ccccc1C3=O`, `Cc1onc(-c2ccccc2)c1C(=O)NC1C(=O)N2C1SCC(C)(Cl)C2C(=O)O` (stereo not drawn) is higher in melting point: 157 to 159 °C for the first, 210 °C for the second.

First: O=C(c1ccc(F)cc1)c1ccc(Cl)cn1
Second: CC1(C)COC(C(C)(C)Oc2ccc(Cl)cc2)=N1
The melting point of the first is higher: 98 to 100 °C for the first, 59 to 61 °C for the second.

Compared with `CCc1ncc(CCCO)n1C`, `O=C(CCn1cnc2c(=O)[nH]cnc21)NCCO` is higher in melting point: 69 to 71 °C for the first, 225 to 229 °C for the second.

First: CCOc1cc2c(c3c1OC(C)(C)C3)C(c1cccc(N3C(=O)NC(C)(C)C3=O)c1)=NC(C)(C)C2
Second: CCOC(=O)c1oc2ccccc2c1N=CN(C)C
The melting point of the first is higher: 237 to 238 °C for the first, 89 to 90 °C for the second.

First: CCc1noc(C)c1C(C)=NNc1ccccc1
Second: N#CCCSC1C2=C(CCCC2)C(=O)N1c1ccc(Cl)cc1F (stereo not drawn)
The melting point of the first is lower: 72 to 75 °C for the first, 101 to 103 °C for the second.
